Here are results for three molecules from US20240294914A1, “COMPOSITIONS AND METHODS FOR TREATING HEPATITIS B VIRUS INFECTION” (priority 2021, published 2024).

The subject of series [1] is HBV cccDNA. The series is described as follows: Base editing of HBV cccDNA in primary human hepatocytes (HBV-PHH). Particulars: PHH, BE4 + gRNA37 + gRNA40. The class given is cell-based, Hepatitis B virus. From the text:
Base editor systems comparing guide RNAs evaluated in Example 1 were subsequently tested for anti-viral and editing efficacy using the Hepatitis B virus-primary human hepatocyte (HBV-PHH) system. Cells were transfected with the guide RNAs and mRNAs encoding the base editor as described in Example 1. […] Guide RNAs ABE-133, MSPbeam94, and ABE-85 were associated with a 70-80% reduction of HBV DNA as compared to controls. The guide RNAs PolyA-NGC1 and PolyA-NGC2 were associated with high editing followed by 90% efficacy in reduction of HbeAg.
(§1) Having identified gRNA37 and gRNA40 as effective gRNAs, the antiviral efficacy of a base editor system containing BE4, gRNA37 and gRNA40 (i.e., multiplexing gRNAs) was evaluated, FIGS. 8-10. It was determined that the base editor system multiplexed with the two gRNAs was associated with a reduction of HBV viral parameters in HepG2-NTCP cells, see FIG. 9. […] For the evaluation of editing of cccDNA, the cccDNA was enriched via Hirt extraction and ExoI/ExoIII nuclease treatment to remove rcDNA (relaxed circular DNA). Throughout the Examples provided herein, editing of cccDNA was evaluated using next generation sequencing completed using cccDNA enriched in this way.
The design of the experiments is described schematically in FIG. 14. Primary human hepatocyte (PHH) cells were infected with HBV at day 0. At days 4 and 11, the cells were transfected with mRNA encoding BE4 and with gRNA37 and gRNA40. Measurements of HBV DNA were taken over time, and measurements of HBsAg, HBeAG, HBV total DNA, 3.5 kb RNA, and cccDNA editing were taken at day 25. The experiments were carried out using a PHH co-culture system available from PhoenixBio. The PHH co-culture system maintained hepatocyte differentiation and metabolic activity for over 30 days. The HBV infection in the cells was persistent and a cccDNA level was maintained.
The design of the experiments is described schematically in FIG. 18. Primary human hepatocyte (PHH) cells were infected with HBV at day 0, at day 4 an 8-day. Treatment with lamivudine commenced (which included a 3-day pretreatment period within the 8-day total), and cells were transfected with mRNA encoding BE4 and the gRNAs gRNA37 and gRNA40 at days 7 and 14. HBV DNA levels were measured over time, and additional HBV markers were measured at day 21.
Primary hepatocytes (PHH) co-cultures infected with HBV were used to test antiviral efficacy of base editing systems. Primary hepatocyte co-culture (PHH) infected with HBV virus is a clinically relevant system for assessing anti-viral activity of base editing systems. The base editing reagents (mRNA encoding a base editor(s) and synthetic gRNA) were transfected via lipofection twice over the course of two weeks. The first transfection was performed about 3, 4, or 7 days after infection (days post infection (dpi)). Not being bound by theory, this 3-to-7-day period ensured that the cccDNA was completely formed at the time of the transfection. The second transfection was at about 7, 10, 11, or 14 days after infection. Extracellular parameters (e.g., HBsAg, HBeAg, and HBV DNA) were monitored over the course of the experiment (including the end of the experiment) and intracellular parameters (HBV DNA, viral RNA, and editing) were measured at the end of the experiment. Cells were lysed at the termination of the experiment (e.g., at 15, 17, 21, or 25 days).
Transfection details: RNA format, 800 ng total RNA per well in a 24 well plate (600 ng base editor-encoding mRNA+200 ng gRNA) transfected via lipofection (lipofectamin messengerMax, thermofisher Scientific) according to the vendor protocol.

Series [2] deals with HBV cccDNA. The series is described as follows: cccDNA editing in HBV-infected HepG2-NTCP cells (NGS on enriched cccDNA). In kind it is cell-based, Hepatitis B virus. Particulars: for improvement in base editing efficiency by lamivudine pretreatment: HepG2-NTCP, 3-day pretreatment (8-day total), BE4 mRNA + gRNAs 37 and 40.
Description: Experiments were completed using guide RNA's listed in Table 1 to identify combinations of guide RNA's effective in treating HBV-infected cells. HepG2-NTCP cells were transfected with mRNA encoding BE4 and a guide RNA(s) selected from gRNA12, gRNA37, gRNA19, gRNA190, and gRNA40. HepG2-NTCP cells are described in Sun, et al. “NTCP-Reconstituted In Vitro HBV Infection System,” Methods Mol. Biol. 1540:1-14 (2017), DOI: 10.1007/978-1-4939-6700-1_1, the disclosure of which is incorporated herein by reference in its entirety for all purposes. Cells were infected at day 0 with HBV and then transfected with the mRNA and gRNA(s) at day 4, see FIG. 6. Measurements of HBsAg, HBeAg, total HBV DNA, and 3.5 kb viral DNA were taken at day 14, see FIG. 6. The guide RNA, gRNA37, targeted HBsAg and gRNA40 targeted the HBV core protein, see FIG. 7. The use of gRNA37 was associated with a reduction in HBsAg levels and the use of gRNA40 was associated with a reduction in HBeAg levels, see FIG. 8. Also, each of gRNA37 and gRNA40 was associated with a lowering of total HBV DNA and 3.5 kb RNA levels.
as §1
HepG2-NTCP cells were infected with HBV at day 0, at day 4 an 8-day treatment with lamivudine commenced (which included a 3-day pretreatment period within the 8-day total), at day 7 cells were transfected with mRNA encoding BE4 and gRNAs 37 and 40, and measurements were taken at day 15. […]

Another series relates to Hepatitis B virus. The series is described as follows: Antiviral efficacy in HBV-infected primary human hepatocytes (HBV-PHH): HBsAg, HBeAg, HBV DNA, 3.5 kb RNA, rebound. In kind it is cell-based. Particulars: PHH co-culture, transfection at days 4 and 11; lamivudine 8 days then discontinued.
The next series has as its system HBV-infected cells. The series is described as follows: Base editors with reduced off-target activity (BE4, ppApo, rrA3F): editing and HBsAg in HBV-infected cells. In kind it is cell-based, Hepatitis B virus. Particulars: base editor in combination with gRNA37 and gRNA40. From the text: FIG. 22 provides a bar graph showing base editing at the sites targeted by gRNA37 and gRNA40. Cells were contacted with BE4, ppApo, or rrA3F in combination with gRNA37 and gRNA40.
Thus, all three base editor systems had antiviral activity. The negative control (HBV) was untreated cells and the control (contr) was gRNA targeting the PCSK9 gene.
It may be advantageous to use base editors that have reduced off-target activity and lower non-specific effects (e.g., as compared to BE4) without compromising editing efficiencies. Thus, experiments were undertaken to evaluate the antiviral efficacy of base editor systems containing ppApo or rrA3F, which are described in Yu, et al. “Cytoxine base editors with minimized unguided DNA and RNA off-target events and high on-target activity,” Nature Communications, 11:2052 (2020), DOI: 10.1038/s41467-020-15887-5, the disclosure of which is incorporated herein by reference in its entirety for all purposes.

Series [3] has as its system naturally integrated HBV genome in PLC/PRF/5. Briefly: Editing of naturally integrated HBV genome in PLC/PRF/5 cells. In kind it is cell-based, Hepatitis B virus. Particulars: BE4 + gRNA. The source says:
This editing reduced HBsAg secretion (FIG. 34B).

The next series concerns HBsAg. Particulars: PLC/PRF/5 cells, BE4 + gRNA, 6th day post-transfection.

For the molecule `Nc1ccn([C@@H]2CS[C@H](CO)O2)c(=O)n1` [lamivudine, 2′,3′-dideoxy-3′-thiacytidine 4-Amino-1-[(2R,5S)-2-(hydroxymethyl)-1,3-oxathiolan-5-yl]-1,2-dihydropyrimidin-2-one], the “editing in primary hepatocytes with lamivudine pretreatment” value in the series with HBV cccDNA [1] is given as “improved editing”. For the same molecule, the “improvement in base editing efficiency by lamivudine pretreatment” value was “about 20%” with HBV cccDNA [2] and 20% in the series on HBV cccDNA [2] (listed as Lamivudine). Moreover, the “functional editing by NGS on cccDNA enriched samples in the presence of 3TC” value in the series with HBV cccDNA [2] (gRNA B+gRNA H with BE4) was “Higher editing efficiency”. For the same molecule, the “HBV rebound (extracellular HBV DNA, qPCR in supernatant)” value in the series with Hepatitis B virus is on record as “rebounded”.
In the case of “BE4: cytidine base editor polypeptide, SEQ ID NO: 10832, delivered as mRNA”, in the series with HBV-infected cells, the HBsAg levels entry is given as “reductions”; the “editing efficiencies at the sites targeted by gRNA37 and gRNA40” value is recorded as “comparable editing efficiencies”.
For the molecule “MSPbeam37-PLC: guide RNA with spacer sequence SEQ ID NO. 10834, single nucleobase change relative to MSPbeam37 (guide GAAAGCCCAAGAUGAUGGGA; guide RNA scaffold, chemistry not fully specified)”, the “editing of the naturally integrated HBV genome” value in series [3] is “edited”. Further, the “extracellular HBsAg (secretion)” value in the series with HBsAg is reported as “reduced”.
